Measurements published in ChEMBL document CHEMBL1201862, “PubChem BioAssay data set” (2004).
Active and inactive are the calls of the source.

Legend:
[1] = target: Nonstructural protein 1 (Influenza A virus, UniProt Q194T2); type: functional, Influenza A virus (A/California/07/2009(H1N1))
[2] = target: T1, Fatty acid synthase (Homo sapiens, UniProt P49327); experiment: FAS thioesterase domain inhibitors, dose response, biochemical, kinetic fluorescence intensity (AID 624326); type: functional;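 also: rate of fluorescence rise from hydrolysis of a fluorogenic O-methyl fluorescein ester substrate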
[3] = target: FAD-linked sulfhydryl oxidase ALR (Homo sapiens, UniProt P55789); experiment: inhibitors of human ALR sulfhydryl oxidase, dose response, biochemical, H2O2 detection, luminescence, cherry-pick (AID 493248)
[4] = target: Genome polyprotein (dengue virus type 2, UniProt P29990); experiment: Dengue-2 NS5 methyltransferase inhibitors, primary screen, biochemical, confirmation dose response (AID 588689); type: functional
[5] = inhibitors of clade B AD8 Env fusion, dose response, cell-based, cherry-pick (AID 652062); type: functional;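 also: luciferase signal from cell-cell fusion driven by HIV-1 clade B AD8 Env; potency is for inhibitors of fusion seen as a drop in luminescence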
[6] = off-target signal loss in HeLa-CEM21 co-culture – HeLa F-luc CTL cells, cherry-picked, counter-screen for HIV-1 Env fusion inhibitor project, dose response (AID 652040); type: functional, cell-based;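 also: potency for signal decrease marking cytotoxic or nonspecific inhibition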
[7] = inhibitors of HIV Env-driven cell fusion, dose response, cherry-pick (AID 652057); type: functional, cell-based
[8] = target: T2, Heat shock factor protein 1 (Mus musculus, UniProt P38532); experiment: inhibition of MG132-induced HSE-luciferase signal, confirmation, cell-based, NIH3T3, luminescence, dose retest (AID 2382); type: functional;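 also: NIH3T3 fibroblasts with HSF1-driven luciferase reporter stressed by proteasome inhibitor MG132; luminescence from HSF1-driven luciferase expression after 8 hours of MG132 stress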
T2 sequence (P38532 whole entry): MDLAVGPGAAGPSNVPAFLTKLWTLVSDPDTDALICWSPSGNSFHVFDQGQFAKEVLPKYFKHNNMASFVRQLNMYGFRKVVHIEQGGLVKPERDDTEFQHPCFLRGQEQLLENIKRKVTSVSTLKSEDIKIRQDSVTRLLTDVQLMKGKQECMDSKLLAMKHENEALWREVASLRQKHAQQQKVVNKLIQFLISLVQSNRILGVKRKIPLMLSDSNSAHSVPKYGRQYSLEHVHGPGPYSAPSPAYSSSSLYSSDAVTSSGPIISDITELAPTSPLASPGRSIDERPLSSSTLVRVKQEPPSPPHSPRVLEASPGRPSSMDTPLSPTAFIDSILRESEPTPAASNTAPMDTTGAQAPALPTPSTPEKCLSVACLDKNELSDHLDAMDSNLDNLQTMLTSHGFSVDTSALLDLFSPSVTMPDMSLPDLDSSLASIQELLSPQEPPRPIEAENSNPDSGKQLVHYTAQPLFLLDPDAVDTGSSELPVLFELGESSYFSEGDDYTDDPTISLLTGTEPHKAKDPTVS

[9] = target: T1, Fatty acid synthase; experiment: FAS thioesterase domain inhibitors, dose response, biochemical, endpoint fluorescence intensity, uHTS hits (AID 624327); type: functional;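 also: fluorescence from hydrolysis of an O-methyl fluorescein acyl ester substrate by the enzyme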
[10] = cells; type: functional, cell-based
[11] = cells; type: functional, cell-based; remark: listed apart in the source
[12] = target: Induced myeloid leukemia cell differentiation protein Mcl-1 (Homo sapiens, UniProt Q07820); type: functional
[13] = target: T3, Replicative DNA helicase DnaB (Mycobacterium tuberculosis, UniProt P9WMR3); experiment: DnaB intein splicing inhibitors, dose response, biochemical, cell-free fluorescence (AID 449749); type: functional
T3 sequence (P9WMR3 whole entry): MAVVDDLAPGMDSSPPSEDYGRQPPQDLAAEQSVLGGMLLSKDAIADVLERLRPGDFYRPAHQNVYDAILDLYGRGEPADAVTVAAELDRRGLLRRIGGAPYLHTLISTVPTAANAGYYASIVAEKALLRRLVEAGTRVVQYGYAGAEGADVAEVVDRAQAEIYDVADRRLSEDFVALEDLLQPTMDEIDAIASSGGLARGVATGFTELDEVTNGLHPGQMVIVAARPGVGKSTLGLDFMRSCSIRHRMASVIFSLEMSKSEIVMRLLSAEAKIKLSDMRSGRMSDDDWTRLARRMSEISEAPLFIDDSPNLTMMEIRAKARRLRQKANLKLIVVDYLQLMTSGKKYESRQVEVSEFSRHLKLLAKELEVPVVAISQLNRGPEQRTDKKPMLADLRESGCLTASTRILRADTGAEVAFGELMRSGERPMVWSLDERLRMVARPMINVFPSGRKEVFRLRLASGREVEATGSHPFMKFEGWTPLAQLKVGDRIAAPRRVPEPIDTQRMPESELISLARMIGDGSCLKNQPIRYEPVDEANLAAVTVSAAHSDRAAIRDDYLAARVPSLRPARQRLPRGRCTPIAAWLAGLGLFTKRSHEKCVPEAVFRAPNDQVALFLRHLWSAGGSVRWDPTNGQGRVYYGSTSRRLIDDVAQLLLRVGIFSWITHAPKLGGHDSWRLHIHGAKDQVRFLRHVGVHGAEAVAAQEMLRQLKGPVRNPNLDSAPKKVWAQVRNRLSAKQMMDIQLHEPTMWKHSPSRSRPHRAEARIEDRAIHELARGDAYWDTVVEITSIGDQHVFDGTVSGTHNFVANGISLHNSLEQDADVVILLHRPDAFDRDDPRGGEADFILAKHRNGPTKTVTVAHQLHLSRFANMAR

[14] = target: T4, Protein RecA (Mycobacterium tuberculosis, UniProt P9WHJ3); experiment: Fluorescence Cell-Free Homogeneous Dose Retest to Identify Inhibitors of RecA-Intein Splicing Activity. [Related pubchem assays (depositor defined):AID2097, AID2223, AID489010, AID492950]; type: functional
T4 sequence (P9WHJ3 whole entry): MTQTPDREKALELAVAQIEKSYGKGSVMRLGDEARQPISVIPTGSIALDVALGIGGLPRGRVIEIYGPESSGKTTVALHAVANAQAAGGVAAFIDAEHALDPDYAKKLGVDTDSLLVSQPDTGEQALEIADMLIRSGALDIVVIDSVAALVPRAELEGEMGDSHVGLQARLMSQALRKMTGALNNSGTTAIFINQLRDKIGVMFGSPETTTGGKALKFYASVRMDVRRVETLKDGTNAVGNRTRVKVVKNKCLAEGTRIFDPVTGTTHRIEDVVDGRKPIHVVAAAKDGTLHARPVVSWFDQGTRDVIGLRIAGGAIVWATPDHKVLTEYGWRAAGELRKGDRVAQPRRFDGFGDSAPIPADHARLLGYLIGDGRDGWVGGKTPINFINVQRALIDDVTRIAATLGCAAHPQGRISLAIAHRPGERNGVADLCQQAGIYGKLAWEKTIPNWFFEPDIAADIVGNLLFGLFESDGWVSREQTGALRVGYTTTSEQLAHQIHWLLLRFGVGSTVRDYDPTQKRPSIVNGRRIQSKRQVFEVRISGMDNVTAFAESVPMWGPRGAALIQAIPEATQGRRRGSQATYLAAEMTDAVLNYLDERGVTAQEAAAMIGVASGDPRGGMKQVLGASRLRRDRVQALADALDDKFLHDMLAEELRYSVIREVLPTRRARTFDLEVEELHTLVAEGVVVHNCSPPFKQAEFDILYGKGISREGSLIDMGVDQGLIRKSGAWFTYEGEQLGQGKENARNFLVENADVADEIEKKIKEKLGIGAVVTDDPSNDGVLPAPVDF

[15] = inhibitors of intracellular T. cruzi replication, confirmation, NIH3T3 host cells, beta-gal luminescence (AID 2044); type: functional, cell-based;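 also: intracellular parasites grown in NIH/3T3 mouse fibroblasts as host cells; luminescent beta-galactosidase reporter signal from transgenic T. cruzi replicating inside host cells; inhibitors lower the luminescence signal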
[16] = cytotoxicity toward NIH3T3 fibroblasts, dose response, counter-screen, cell-based, ATP luminescence, mouse fibroblasts (AID 2010); type: functional;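 also: cells exposed to compound for about 90 hours before reading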
[17] = ZM109 Env clade C HIV-1 fusion inhibitors, dose response, HeLa effector, CEM target cells, luciferase, cherry-pick (AID 652058); type: functional, cell-based
[18] = cytotoxicity toward DRD oncogenic fibroblasts, dose response, cell-based, non-viral oncogenic, luminescence (AID 1934); type: functional; conditions: Homo sapiens
[19] = tested on: BJ; experiment: cytotoxicity toward BJ-TERT fibroblasts, dose response, cell-based, RAS-independent, luminescence (AID 1933); type: functional; conditions: Homo sapiens
[20] = tested on: BJ; experiment: cytotoxicity toward BJ-TERT-LT-ST fibroblasts, dose response, cell-based, RAS-independent, luminescence (AID 1935); type: functional; conditions: Homo sapiens;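 also: BJ fibroblasts immortalized with TERT plus LT and ST oncogenes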
[21] = tested on: BJ; experiment: cells; type: functional, cell-based; conditions: Homo sapiens

T1 sequence (P49327 whole entry, the tested form may be a part): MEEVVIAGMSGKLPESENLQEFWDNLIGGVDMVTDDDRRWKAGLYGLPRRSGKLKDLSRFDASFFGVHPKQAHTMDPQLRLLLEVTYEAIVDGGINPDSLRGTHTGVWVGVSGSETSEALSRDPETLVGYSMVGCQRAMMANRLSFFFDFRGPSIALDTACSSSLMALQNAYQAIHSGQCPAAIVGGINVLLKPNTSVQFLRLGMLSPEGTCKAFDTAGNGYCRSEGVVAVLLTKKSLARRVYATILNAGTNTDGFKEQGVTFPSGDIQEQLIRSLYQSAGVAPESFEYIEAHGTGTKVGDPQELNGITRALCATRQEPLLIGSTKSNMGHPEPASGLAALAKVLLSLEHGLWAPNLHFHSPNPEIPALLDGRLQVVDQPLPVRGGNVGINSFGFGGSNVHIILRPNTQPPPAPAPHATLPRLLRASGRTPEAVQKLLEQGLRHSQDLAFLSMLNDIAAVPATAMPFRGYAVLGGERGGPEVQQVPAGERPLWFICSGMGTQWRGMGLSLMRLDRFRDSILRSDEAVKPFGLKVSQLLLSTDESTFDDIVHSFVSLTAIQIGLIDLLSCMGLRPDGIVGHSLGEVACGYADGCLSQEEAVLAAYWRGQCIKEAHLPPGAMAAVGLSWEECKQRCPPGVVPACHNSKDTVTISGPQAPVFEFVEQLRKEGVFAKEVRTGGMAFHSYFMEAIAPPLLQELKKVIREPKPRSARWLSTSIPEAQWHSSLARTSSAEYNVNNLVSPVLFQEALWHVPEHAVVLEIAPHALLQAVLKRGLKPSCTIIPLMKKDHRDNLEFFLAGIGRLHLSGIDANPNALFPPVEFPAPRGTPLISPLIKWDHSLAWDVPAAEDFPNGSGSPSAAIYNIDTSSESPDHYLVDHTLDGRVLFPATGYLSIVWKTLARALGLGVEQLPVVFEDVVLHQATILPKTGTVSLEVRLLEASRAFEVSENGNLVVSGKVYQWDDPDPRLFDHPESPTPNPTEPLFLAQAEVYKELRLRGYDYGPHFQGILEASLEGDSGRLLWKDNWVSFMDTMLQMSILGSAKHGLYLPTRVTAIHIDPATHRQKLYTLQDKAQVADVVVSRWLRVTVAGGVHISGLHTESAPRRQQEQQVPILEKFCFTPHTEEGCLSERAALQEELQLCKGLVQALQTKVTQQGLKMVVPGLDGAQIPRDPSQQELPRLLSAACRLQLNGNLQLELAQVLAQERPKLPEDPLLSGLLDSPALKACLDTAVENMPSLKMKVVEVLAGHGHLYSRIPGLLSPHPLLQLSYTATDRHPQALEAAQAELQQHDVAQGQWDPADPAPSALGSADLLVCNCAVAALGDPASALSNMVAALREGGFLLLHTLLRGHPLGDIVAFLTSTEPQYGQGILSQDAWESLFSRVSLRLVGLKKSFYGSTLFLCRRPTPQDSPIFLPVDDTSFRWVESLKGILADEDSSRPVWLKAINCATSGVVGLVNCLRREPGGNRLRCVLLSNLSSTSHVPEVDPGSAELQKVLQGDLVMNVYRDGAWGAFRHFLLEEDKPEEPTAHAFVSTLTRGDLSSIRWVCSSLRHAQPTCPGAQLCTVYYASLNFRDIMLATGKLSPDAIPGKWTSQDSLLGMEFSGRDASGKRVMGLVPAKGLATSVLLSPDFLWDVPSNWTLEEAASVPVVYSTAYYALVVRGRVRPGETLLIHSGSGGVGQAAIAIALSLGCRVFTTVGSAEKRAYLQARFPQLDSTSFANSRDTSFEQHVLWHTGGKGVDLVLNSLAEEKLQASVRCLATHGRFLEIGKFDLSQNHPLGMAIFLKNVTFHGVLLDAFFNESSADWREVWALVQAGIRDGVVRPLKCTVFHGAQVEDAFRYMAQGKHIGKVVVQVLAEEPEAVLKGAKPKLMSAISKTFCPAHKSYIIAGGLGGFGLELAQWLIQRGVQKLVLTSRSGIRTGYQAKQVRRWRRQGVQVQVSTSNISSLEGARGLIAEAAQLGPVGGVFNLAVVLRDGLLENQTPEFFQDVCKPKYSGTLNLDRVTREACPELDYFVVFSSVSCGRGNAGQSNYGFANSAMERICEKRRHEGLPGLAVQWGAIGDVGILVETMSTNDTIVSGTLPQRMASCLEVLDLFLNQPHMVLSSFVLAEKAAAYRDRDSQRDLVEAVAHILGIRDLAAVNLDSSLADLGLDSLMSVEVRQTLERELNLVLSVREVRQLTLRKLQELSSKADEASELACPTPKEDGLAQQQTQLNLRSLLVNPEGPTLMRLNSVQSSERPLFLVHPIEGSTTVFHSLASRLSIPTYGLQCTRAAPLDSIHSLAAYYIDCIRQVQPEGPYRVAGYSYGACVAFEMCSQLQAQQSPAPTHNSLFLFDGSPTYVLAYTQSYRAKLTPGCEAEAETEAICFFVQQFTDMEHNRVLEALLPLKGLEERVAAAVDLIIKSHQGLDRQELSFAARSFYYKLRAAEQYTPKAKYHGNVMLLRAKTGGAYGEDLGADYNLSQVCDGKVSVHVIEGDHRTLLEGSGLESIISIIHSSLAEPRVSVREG
Sequence of Genome polyprotein (P29990 2492-3391 limits assumed): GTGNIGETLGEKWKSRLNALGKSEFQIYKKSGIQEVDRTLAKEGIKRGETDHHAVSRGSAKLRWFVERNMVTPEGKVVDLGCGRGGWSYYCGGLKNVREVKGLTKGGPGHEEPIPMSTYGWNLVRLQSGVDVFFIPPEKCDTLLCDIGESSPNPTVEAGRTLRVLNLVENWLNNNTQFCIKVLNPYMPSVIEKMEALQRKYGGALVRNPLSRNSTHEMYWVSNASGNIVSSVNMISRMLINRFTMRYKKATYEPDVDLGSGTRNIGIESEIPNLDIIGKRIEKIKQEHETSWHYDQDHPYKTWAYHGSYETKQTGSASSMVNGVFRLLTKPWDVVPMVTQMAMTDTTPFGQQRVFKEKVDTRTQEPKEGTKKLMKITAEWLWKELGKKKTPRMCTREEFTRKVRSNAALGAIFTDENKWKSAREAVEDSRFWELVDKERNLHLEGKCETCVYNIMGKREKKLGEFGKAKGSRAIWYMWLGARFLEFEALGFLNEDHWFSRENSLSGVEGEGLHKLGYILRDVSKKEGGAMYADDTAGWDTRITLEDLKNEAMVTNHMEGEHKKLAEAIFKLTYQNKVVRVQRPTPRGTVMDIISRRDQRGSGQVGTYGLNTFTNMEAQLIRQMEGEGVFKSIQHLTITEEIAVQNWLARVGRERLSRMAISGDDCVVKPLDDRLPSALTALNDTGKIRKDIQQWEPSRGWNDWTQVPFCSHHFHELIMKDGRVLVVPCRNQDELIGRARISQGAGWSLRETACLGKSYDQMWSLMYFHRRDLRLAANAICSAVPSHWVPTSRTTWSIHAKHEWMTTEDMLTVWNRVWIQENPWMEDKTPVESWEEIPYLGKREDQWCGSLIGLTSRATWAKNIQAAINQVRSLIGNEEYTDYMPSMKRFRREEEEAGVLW
Sequence of Nonstructural protein 1 (Q194T2 whole entry, the tested form may be a part): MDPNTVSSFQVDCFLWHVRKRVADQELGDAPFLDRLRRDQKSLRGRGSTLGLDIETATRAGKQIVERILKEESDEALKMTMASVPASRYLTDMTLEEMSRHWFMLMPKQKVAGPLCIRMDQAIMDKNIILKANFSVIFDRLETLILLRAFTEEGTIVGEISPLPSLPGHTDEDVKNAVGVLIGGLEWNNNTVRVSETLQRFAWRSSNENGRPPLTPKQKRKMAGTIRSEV
Sequence of Induced myeloid leukemia cell differentiation protein Mcl-1 (Q07820 whole entry): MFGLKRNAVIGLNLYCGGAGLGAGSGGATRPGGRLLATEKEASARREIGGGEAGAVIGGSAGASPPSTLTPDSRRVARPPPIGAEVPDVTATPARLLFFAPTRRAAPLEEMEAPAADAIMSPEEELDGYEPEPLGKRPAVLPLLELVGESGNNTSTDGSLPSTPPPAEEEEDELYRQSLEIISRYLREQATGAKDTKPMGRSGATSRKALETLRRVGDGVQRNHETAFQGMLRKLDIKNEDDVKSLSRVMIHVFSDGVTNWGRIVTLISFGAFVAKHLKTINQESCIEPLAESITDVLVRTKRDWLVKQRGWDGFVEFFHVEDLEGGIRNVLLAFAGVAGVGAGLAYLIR
Sequence of FAD-linked sulfhydryl oxidase ALR (P55789 whole entry): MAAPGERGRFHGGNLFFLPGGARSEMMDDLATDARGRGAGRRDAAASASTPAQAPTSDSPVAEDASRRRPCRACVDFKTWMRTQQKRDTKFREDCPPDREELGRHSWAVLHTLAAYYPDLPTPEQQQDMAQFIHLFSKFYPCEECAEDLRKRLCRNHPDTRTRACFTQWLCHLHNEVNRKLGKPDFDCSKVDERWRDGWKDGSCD

Cc1cc(C(=O)N/N=C/c2cc([N+](=O)[O-])cc(C)c2O)[nH]n1
IC50 [1]: 8.76 µM (active) | IC50 [2]: 11.8 µM (active)

Cc1ccc(C(=O)Nc2ccccc2C(=O)O)cc1S(=O)(=O)Nc1ccc(Br)cc1
AC50 [3]: 0.628 µM (active) | IC50 [4]: 49.8 µM (active)

O=C1ON=C(c2ccc([N+](=O)[O-])cc2)/C1=C/c1ccccc1O
IC50 [4]: 32.4 µM (active)

Cc1cccc(NC(=O)C2CCN(S(=O)(=O)c3ccc4c(c3)OCCCO4)CC2)n1
AC50 [5]: 13.1 µM (active) | AC50 [6]: 42.2 µM (active) | AC50 [7]: 66.2 µM (active)

CC(CCc1ccccc1)NC(=O)c1cccc([N+](=O)[O-])c1 (centres undefined)
EC50 [8]: > 195 µM (not active) | IC50 [9]: 6.29 µM (active) | IC50 [2]: 7.07 µM (active)

O=C(CCN1C(=O)/C(=C/c2ccccc2Cl)SC1=S)Nc1ccccn1
IC50 [9]: 6.7 µM (active) | IC50 [2]: 1.96 µM (active)

CC(=O)Nc1ccc2c(c1)CCCC2=O
EC50 [10]: > 350 µM (not active) | EC50 [11]: > 350 µM (not active)

COc1ccc2cc(C(C)C(=O)N3CCC(C(N)=O)CC3)ccc2c1 (centres undefined)
EC50 [10]: > 350 µM (not active) | EC50 [11]: > 350 µM (not active)

COc1ccc(C(=O)Nn2c(SCc3cccc([N+](=O)[O-])c3)nc3ccccc3c2=O)cc1
IC50 [9]: 17.5 µM (active) | IC50 [2]: 14.3 µM (active)

O=C1NC(=O)C(=Cc2cc(Cl)ccc2OCc2ccc(C(=O)O)cc2)C(=O)N1
IC50 [4]: 20.7 µM (active)

C=CCOC(=O)/C(=C\c1ccccc1)NC(=O)c1ccc(C)cc1
IC50 [12]: 2.49 µM (not active)

CCc1ccccc1N1C(=O)C(Cl)=C(N2CCOCC2)C1=O
AC50 [13]: 6.57 µM (active) | EC50 [14]: 4.01 µM (active) | IC50 [4]: 83.2 µM (active)

O=C(Cn1cnc2cc([N+](=O)[O-])ccc2c1=O)Nc1ccc2c(c1)OCO2
EC50 [15]: 2.31 µM (active) | IC50 [9]: 4.19 µM (active) | IC50 [2]: 3.65 µM (active) | EC50 [16]: > 60 µM (not active)

CC(C)OC(=O)/C(C#N)=C/c1cn(C)c2ccccc12
IC50 [9]: 13.8 µM (active) | IC50 [2]: 11.1 µM (active)

CC(NC(=O)CN(C)CC(=O)Nc1ccc(Cl)c(C(F)(F)F)c1)c1ccccc1 (centres undefined)
AC50 [5]: 14.9 µM (active) | AC50 [6]: 15.7 µM (active) | AC50 [17]: 8.39 µM (active) | AC50 [7]: 4.06 µM (active)

O=C(Nc1ncc2c(n1)-c1ccccc1OC2)c1cccc([N+](=O)[O-])c1
IC50 [9]: 9.93 µM (active) | IC50 [2]: 13 µM (active)

COc1ccc(/C=C(\C#N)c2nc3ccccc3[nH]2)cc1O
EC50 [10]: > 350 µM (not active) | EC50 [11]: 8.05 µM (active)

COC(=O)Cn1c(=O)c(C(=O)CCl)c(N)n(Cc2ccccc2)c1=O
EC50 [18]: 4.86 µM (inconclusive) | EC50 [19]: 0.797 µM (active) | EC50 [20]: 16.3 µM (inconclusive) | EC50 [21]: 7 µM (active)

COC(=O)Nc1ccc(S(=O)(=O)N(C)C)cc1
EC50 [10]: > 350 µM (not active) | EC50 [11]: > 350 µM (not active)

COc1cccc(-n2c(SCC(=O)N3CCOCC3)nc3c4ccccc4nc-3c2O)c1
EC50 [10]: > 350 µM (not active) | EC50 [11]: > 350 µM (not active)

Cc1ccc(S(=O)(=O)NCc2ccc3c(c2)cc(C)n3C)cc1
EC50 [15]: 3.2 µM (active) | IC50 [1]: 86.6 µM (active) | EC50 [16]: > 60 µM (not active)

CC(C)C(=O)Nc1sc2c(c1C(N)=O)CCN(Cc1ccccc1)C2
EC50 [18]: 47.8 µM (active) | EC50 [19]: > 150 µM (not active) | EC50 [20]: > 150 µM (not active) | EC50 [21]: > 150 µM (not active)

CCN(CC)c1nc(Nc2ccccc2)nc(Oc2ccc(O)nn2)n1
AC50 [5]: 9.57 µM (active) | AC50 [6]: 5.99 µM (active) | AC50 [17]: 9.89 µM (active) | AC50 [7]: 6.13 µM (active)

O=C(C[C@H]1C[C@H](C(=O)N2CCOCC2)[C@@]2(CCC3CCCC3)c3[nH]c4ccc(Cl)cc4c3CCN2C1=O)NCCc1ccccn1
IC50 [9]: 1.03 µM (active) | IC50 [2]: 1.15 µM (active)

C=C1CCN([C@@H](CC(C)C)C(=O)Nc2ccc(OC)cc2)S(=O)(=O)c2ccccc21
AC50 [5]: 3.63 µM (active) | AC50 [6]: 4.03 µM (active) | AC50 [17]: 2.47 µM (active) | AC50 [7]: 2.12 µM (active)

O=C(O)/C=C/C(=O)c1c(-c2ccccc2)[nH]c2ccccc12
IC50 [4]: > 100 µM (active)
